# Results taken from patent publication US4229204A, “Trifluoromethylphenyl isoxazolyl benzoates” (Monsanto Company, priority 1978, dated 1980).
# Assays:
# Format in all cases: in vivo
# [1] = tested on: Lambsquarters; experiment: Pre-emergent herbicidal test; conditions: 2 WAT, 11.2 kg/h
# Protocol: (§1) The pre-emergent test was conducted as follows:
# (§2) A good grade of top soil was placed in aluminum pans and compacted to a depth of three-eighths to one-half inch from the top of the pan. On the top of the soil was placed a predetermined number of seeds or vegetative propagules of various plant species which were pressed into the soil surface. The soil required to level fill the pans after seeding or adding vegetative propagules was weighed into a pan. A known amount of the active ingredient applied in a solvent or as a wettable powder and the soil were thoroughly mixed, and used as a cover layer for prepared pans.
# (§3) The herbicidal rating was obtained by means of a fixed scale based on the percent injury of each plant species. The ratings are defined as follows: […]
# (§4) The compounds were also tested by utilizing the above procedure on the following plant species: […]
# [2] = tested on: Cocklebur; experiment: Pre-emergent herbicidal test; conditions: 2 WAT, 11.2 kg/h
# Protocol: as §1, §2, §3, §4
# [3] = tested on: Yellow Nutsedge; experiment: Pre-emergent herbicidal test; conditions: 2 WAT, 11.2 kg/h
# Protocol: as §1, §2, §3, §4
# [4] = tested on: Quackgrass; experiment: Pre-emergent herbicidal test; conditions: 2 WAT, 11.2 kg/h
# Protocol: as §1, §2, §3, §4
# [5] = tested on: Canada Thistle; experiment: Pre-emergent herbicidal test; conditions: 2 WAT, 11.2 kg/h
# Protocol: as §1, §2, §3, §4
# [6] = tested on: Smartweed; experiment: Pre-emergent herbicidal test; conditions: 2 WAT, 11.2 kg/h
# Protocol: as §1, §2, §3, §4
# [7] = tested on: Downy Brome; experiment: Pre-emergent herbicidal test; conditions: 2 WAT, 11.2 kg/h
# Protocol: as §1, §2, §3, §4
# [8] = tested on: Barnyardgrass; experiment: Pre-emergent herbicidal test; conditions: 2 WAT, 11.2 kg/h
# Protocol: as §1, §2, §3, §4
# [9] = tested on: Velvetleaf; experiment: Pre-emergent herbicidal test; conditions: 2 WAT, 11.2 kg/h
# Protocol: as §1, §2, §3, §4
# [10] = tested on: Morningglory; experiment: Pre-emergent herbicidal test; conditions: 2 WAT, 11.2 kg/h
# Protocol: as §1, §2, §3, §4
# [11] = tested on: Johnsongrass; experiment: Pre-emergent herbicidal test; conditions: 2 WAT, 11.2 kg/h
# Protocol: as §1, §2, §3, §4
# [12] = tested on: Lambsquarters; experiment: Post-emergent herbicidal test; conditions: 4 WAT, 11.2 kg/h
# Protocol: (§5) The post-emergent tests were conducted as follows:
# (§6) The active ingredients are applied in spray form to two or three week old specimens of various plant species. The spray, a solution or wettable powder suspension containing the appropriate rate of active ingredient to give the desired test rate and a surfactant, is applied to the plants.
# as §4
# [13] = tested on: Cocklebur; experiment: Post-emergent herbicidal test; conditions: 4 WAT, 11.2 kg/h
# Protocol: as §5, §6, §4
# [14] = tested on: Yellow Nutsedge; experiment: Post-emergent herbicidal test; conditions: 4 WAT, 11.2 kg/h
# Protocol: as §5, §6, §4
# [15] = tested on: Quackgrass; experiment: Post-emergent herbicidal test; conditions: 4 WAT, 11.2 kg/h
# Protocol: as §5, §6, §4
# [16] = tested on: Canada Thistle; experiment: Post-emergent herbicidal test; conditions: 4 WAT, 11.2 kg/h
# Protocol: as §5, §6, §4
# [17] = tested on: Smartweed; experiment: Post-emergent herbicidal test; conditions: 4 WAT, 11.2 kg/h
# Protocol: as §5, §6, §4
# [18] = tested on: Downy Brome; experiment: Post-emergent herbicidal test; conditions: 4 WAT, 11.2 kg/h
# Protocol: as §5, §6, §4
# [19] = tested on: Barnyardgrass; experiment: Post-emergent herbicidal test; conditions: 4 WAT, 11.2 kg/h
# Protocol: as §5, §6, §4
# [20] = tested on: Velvetleaf; experiment: Post-emergent herbicidal test; conditions: 4 WAT, 11.2 kg/h
# Protocol: as §5, §6, §4
# [21] = tested on: Morningglory; experiment: Post-emergent herbicidal test; conditions: 4 WAT, 11.2 kg/h
# Protocol: as §5, §6, §4
# [22] = tested on: Johnsongrass; experiment: Post-emergent herbicidal test; conditions: 4 WAT, 11.2 kg/h
# Protocol: as §5, §6, §4
# Further: ranges in brackets are in %.
structure (smiles),measurement,setting,value
"CC(C)OC(=O)c1ccccc1-c1cc(-c2cccc(C(F)(F)F)c2)no1 [Example 8, Isopropyl 2-[3-[3-(Trifluoromethyl)Phenyl]-5-Isoxazolyl]Benzoate]",herbicidal rating,[1],3 (75-100)
same,herbicidal rating,[2],0 (0-24)
same,herbicidal rating,[3],0 (0-24)
same,herbicidal rating,[4],1 (25-49)
same,herbicidal rating,[5],0 (0-24)
same,herbicidal rating,[6],0 (0-24)
same,herbicidal rating,[7],0 (0-24)
same,herbicidal rating,[8],0 (0-24)
same,herbicidal rating,[9],0 (0-24)
same,herbicidal rating,[10],0 (0-24)
same,herbicidal rating,[11],0 (0-24)
same,herbicidal rating,[12],2 (50-74)
same,herbicidal rating,[13],1 (25-49)
same,herbicidal rating,[14],0 (0-24)
same,herbicidal rating,[15],0 (0-24)
same,herbicidal rating,[16],0 (0-24)
same,herbicidal rating,[17],1 (25-49)
same,herbicidal rating,[18],0 (0-24)
same,herbicidal rating,[19],1 (25-49)
same,herbicidal rating,[20],0 (0-24)
same,herbicidal rating,[21],2 (50-74)
same,herbicidal rating,[22],0 (0-24)
